Measurements as given in patent US6455540B1, “Methods of use of quinolone compounds against anaerobic pathogenic bacteria” (priority 1999, dated 2002).
Values after ≈ are worked out from the molar mass of the structure shown.

Tests used:
Experiment in all cases: Agar dilution MIC
[1] = system: Fusobacterium varium; format: cell-based; details: 17 isolates
[2] = system: Bacteroides ureolyticus; format: cell-based; details: 17 isolates
[3] = system: Peptostreptococcus magnus; format: cell-based; details: 13 isolates
[4] = system: Anaerobiospirillum succiniciproducens; format: cell-based; details: 3 isolates
[5] = system: Prevotella melaninogenica; format: cell-based; details: Prevotella melaninogenica, 12 isolates
[6] = system: Prevotella bivia; format: cell-based; details: Prevotella bivia, 21 isolates
[7] = system: Fusobacterium russii; format: cell-based; details: Fusobacterium russii
[8] = system: Peptostreptococcus prevotii; format: cell-based; details: 9 isolates
[9] = system: Clostridium dfficile; format: cell-based, Clostridium difficile; details: Clostridium, read-out: Minimal Inhibitory Concentration 90% (MIC90), 14 isolates
[10] = system: Bacteroides tectum; format: cell-based; details: Bacteroides pyogenes, 22 isolates
[11] = system: Fusobacterium spp group 1; format: cell-based; details: Fusobacterium, 19 isolates
[12] = system: Prevotella intermedia; format: cell-based; details: Prevotella intermedia, 11 isolates
[13] = system: Porphyromonas spp.; format: cell-based, Porphyromonas cangingivalis, cansulci, circumdentaria, levii; details: Porphyromonas, 11 isolates
[14] = system: Fusobacterium spp. group 2; format: cell-based, Fusobacterium mortiferum, necrogenes, ulcerans; details: 12 isolates
[15] = system: Porphyromonas macaccae; format: cell-based; details: Porphyromonas, 13 isolates
[16] = system: Prevotella denticola/loeschii group; format: cell-based; details: Prevotella denticola, read-out: Minimal Inhibitory Concentration 50% (MIC50); 6 isolates
[17] = system: Actinomyces odontolyticus; format: cell-based; details: Schaalia odontolytica, 10 isolates
[18] = system: Prevotella heparinolytica; format: cell-based; details: Prevotella heparinolytica, 16 isolates
[19] = system: Anaerobiospirillum thomasii; format: cell-based; details: Anaerobiospirillum thomasii, 13 isolates
[20] = system: Clostridium ramosum; format: cell-based; details: 10 isolates
[21] = system: Clostridium clostridioforme; format: cell-based; details: Clostridium, 11 isolates
[22] = system: Veillonella spp.; format: cell-based; details: Veillonella, 24 isolates
[23] = system: Actinomyces israelii; format: cell-based; details: 6 isolates
[24] = system: Peptostreptococcus micros; format: cell-based; details: 12 isolates
[25] = system: Clostridium inocuum; format: cell-based, Clostridium innocuum; details: Clostridium, 11 isolates
[26] = system: Prevotella buccae-oris group; format: cell-based; details: Prevotella, 22 isolates
[27] = system: Bilophila wadsworthia; format: cell-based; details: 16 isolates, agar supplemented with pyruvate
[28] = system: Porphyromonas canoris; format: cell-based; details: Porphyromonas canoris, 10 isolates
[29] = system: Peptostreptococcus asaccharolyticus; format: cell-based; details: Peptoniphilus asaccharolyticus, 11 isolates
[30] = system: Bacteroides gracilis; format: cell-based, Bacteroides gracilis (Campylobacter gracilis); details: 11 isolates
[31] = system: Porphyromonas gingivalis; format: cell-based; details: Porphyromonas gingivalis, 13 isolates
[32] = system: Porphyromonas asaccharolyticus; format: cell-based, Porphyromonas asaccharolytica; details: Porphyromonas, 11 isolates
[33] = read-out: Minimal Inhibitory Concentration 90% (MIC90)
[34] = read-out: Minimal Inhibitory Concentration 50% (MIC50)

Structure (SMILES): CCC[C@@H]1C[C@@H](C(=O)N[C@@H]([C@H]2O[C@H](SC)[C@H](O)[C@@H](O)[C@H]2O)[C@H](C)Cl)N(C)C1 [Clindamycin]
- Minimal Inhibitory Concentration Range [1]: 0.06 to 16 µg/mL
- MIC50 ([1]; Fusobacterium varium, read-out: Minimal Inhibitory Concentration 50% (MIC50)): 4 µg/mL (≈ 9.41 µM)
- MIC90 ([1]; Fusobacterium varium, read-out: Minimal Inhibitory Concentration 90% (MIC90)): 16 µg/mL (≈ 37.6 µM)
- Minimal Inhibitory Concentration Range [2]: 0.03 to 0.5 µg/mL
- MIC90 ([2]; Campylobacter ureolyticus, read-out: Minimal Inhibitory Concentration 90% (MIC90)): 0.25 µg/mL (≈ 0.588 µM)
- MIC50 ([2]; Campylobacter ureolyticus, read-out: Minimal Inhibitory Concentration 50% (MIC50)): 0.06 µg/mL (≈ 0.141 µM)
- Minimal Inhibitory Concentration Range [3]: 0.06 to 2 µg/mL
- MIC50 ([3]; Finegoldia magna, read-out: Minimal Inhibitory Concentration 50% (MIC50)): 0.5 µg/mL (≈ 1.18 µM)
- MIC90 ([3]; Finegoldia magna, read-out: Minimal Inhibitory Concentration 90% (MIC90)): 2 µg/mL (≈ 4.71 µM)
- Minimal Inhibitory Concentration Range [4]: 32 µg/mL
- MIC50 ([4]; Anaerobiospirillum succiniciproducens, read-out: Minimal Inhibitory Concentration 50% (MIC50)): 32 µg/mL (≈ 75.3 µM)
- MIC90 [5, 33]: 0.5 µg/mL (≈ 1.18 µM)
- MIC50 [5, 34]: ≤ 0.015 µg/mL
- MIC90 [6, 33]: 0.03 µg/mL (≈ 0.0706 µM)
- MIC50 [6, 34]: ≤ 0.015 µg/mL
- MIC50 [7, 34]: 0.03 µg/mL (≈ 0.0706 µM)
- MIC90 [7, 33]: 0.06 µg/mL (≈ 0.141 µM)
- Minimal Inhibitory Concentration Range [8]: 0.030 to 32 µg/mL
- MIC50 ([8]; Anaerococcus prevotii, read-out: Minimal Inhibitory Concentration 50% (MIC50)): 1 µg/mL (≈ 2.35 µM)
- MIC90 [9]: > 32 µg/mL
- MIC90 [10, 33]: ≤ 0.015 µg/mL
- MIC50 [10, 34]: ≤ 0.015 µg/mL
- MIC50 ([11]; GROUP1, read-out: Minimal Inhibitory Concentration 50% (MIC50)): 0.06 µg/mL (≈ 0.141 µM)
- MIC90 ([11]; GROUP1, read-out: Minimal Inhibitory Concentration 90% (MIC90)): 0.125 µg/mL (≈ 0.294 µM)
- MIC90 [12, 33]: ≤ 0.015 µg/mL
- MIC50 [12, 34]: ≤ 0.015 µg/mL
- MIC50 [13, 34]: ≤ 0.015 µg/mL
- MIC90 [13, 33]: ≤ 0.015 µg/mL
- Minimal Inhibitory Concentration Range [14]: 0.06 to 8 µg/mL
- MIC50 ([14]; Fusobacterium, read-out: Minimal Inhibitory Concentration 50% (MIC50)): 1 µg/mL (≈ 2.35 µM)
- MIC90 ([14]; Fusobacterium, read-out: Minimal Inhibitory Concentration 90% (MIC90)): 8 µg/mL (≈ 18.8 µM)
- MIC50 [15, 34]: ≤ 0.015 µg/mL
- MIC90 [15, 33]: ≤ 0.015 µg/mL
- MIC50 [16]: ≤ 0.015 µg/mL
- MIC90 [17, 33]: 0.25 µg/mL (≈ 0.588 µM)
- MIC50 [17, 34]: 0.125 µg/mL (≈ 0.294 µM)
- MIC90 [18, 33]: ≤ 0.015 µg/mL
- MIC50 [18, 34]: ≤ 0.015 µg/mL
- MIC50 [19, 34]: 32 µg/mL (≈ 75.3 µM)
- MIC90 [19, 33]: > 32 µg/mL
- Minimal Inhibitory Concentration Range [20]: 0.25 to 4 µg/mL
- MIC50 ([20]; Thomasclavelia ramosa, read-out: Minimal Inhibitory Concentration 50% (MIC50)): 2 µg/mL (≈ 4.71 µM)
- MIC90 ([20]; Thomasclavelia ramosa, read-out: Minimal Inhibitory Concentration 90% (MIC90)): 2 µg/mL (≈ 4.71 µM)
- MIC90 [21, 33]: 2 µg/mL (≈ 4.71 µM)
- MIC50 [21, 34]: 0.06 µg/mL (≈ 0.141 µM)
- MIC90 [22, 33]: 2 µg/mL (≈ 4.71 µM)
- MIC50 [22, 34]: 0.06 µg/mL (≈ 0.141 µM)
- Minimal Inhibitory Concentration Range [23]: 0.06 to 0.25 µg/mL
- MIC50 ([23]; Actinomyces israelii, read-out: Minimal Inhibitory Concentration 50% (MIC50)): 0.06 µg/mL (≈ 0.141 µM)
- Minimal Inhibitory Concentration Range [24]: 0.06 to 0.125 µg/mL
- MIC50 ([24]; Parvimonas micra, read-out: Minimal Inhibitory Concentration 50% (MIC50)): 0.125 µg/mL (≈ 0.294 µM)
- MIC90 ([24]; Parvimonas micra, read-out: Minimal Inhibitory Concentration 90% (MIC90)): 0.125 µg/mL (≈ 0.294 µM)
- MIC90 [25, 33]: > 32 µg/mL
- MIC50 [25, 34]: 0.5 µg/mL (≈ 1.18 µM)
- MIC90 [26, 33]: 0.03 µg/mL (≈ 0.0706 µM)
- MIC50 [26, 34]: ≤ 0.015 µg/mL
- Minimal Inhibitory Concentration Range [27]: 0.25 to 2 µg/mL
- MIC90 ([27]; Bilophila wadsworthia, read-out: Minimal Inhibitory Concentration 90% (MIC90)): 2 µg/mL (≈ 4.71 µM)
- MIC50 ([27]; Bilophila wadsworthia, read-out: Minimal Inhibitory Concentration 50% (MIC50)): 0.5 µg/mL (≈ 1.18 µM)
- MIC50 [28, 34]: ≤ 0.015 µg/mL
- MIC90 [28, 33]: ≤ 0.015 µg/mL
- MIC50 [29, 34]: 0.06 µg/mL (≈ 0.141 µM)
- MIC90 [29, 33]: > 32 µg/mL
- Minimal Inhibitory Concentration Range [30]: 0.03 to 8 µg/mL
- MIC90 ([30]; Campylobacter gracilis, read-out: Minimal Inhibitory Concentration 90% (MIC90)): 2 µg/mL (≈ 4.71 µM)
- MIC50 ([30]; Campylobacter gracilis, read-out: Minimal Inhibitory Concentration 50% (MIC50)): 0.25 µg/mL (≈ 0.588 µM)
- MIC50 [31, 34]: ≤ 0.015 µg/mL
- MIC90 [31, 33]: ≤ 0.015 µg/mL
- MIC50 [32, 34]: ≤ 0.015 µg/mL
- MIC90 [32, 33]: > 32 µg/mL
